The target in the experiment is human PAD4 (hPAD4) (Homo sapiens (Human), UniProt Q9UM07). In words: RFMS Human PAD4 Functional Assay 1. The class given is biochemical. The conditions noted are these: RFMS assay 1; 5 nM hPAD4, 250 μM BAEE substrate, 50 μM calcium, 37° C. An outline of the steps:
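Recombinant hPAD4 (5 nM) was preincubated with compound (top 50 μM, 0.5% DMSO) for 30 min at 37 °C, then reacted with 250 μM BAEE for 90 min at 37 °C in pH 7.5 HEPES buffer with 50 μM calcium and 5 μM TPEN. Product was derivatized with phenyl glyoxal and quantified by RapidFire MS.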

Each structure is given as a SMILES string.

Chain of human PAD4 (hPAD4) (Q9UM07 whole entry): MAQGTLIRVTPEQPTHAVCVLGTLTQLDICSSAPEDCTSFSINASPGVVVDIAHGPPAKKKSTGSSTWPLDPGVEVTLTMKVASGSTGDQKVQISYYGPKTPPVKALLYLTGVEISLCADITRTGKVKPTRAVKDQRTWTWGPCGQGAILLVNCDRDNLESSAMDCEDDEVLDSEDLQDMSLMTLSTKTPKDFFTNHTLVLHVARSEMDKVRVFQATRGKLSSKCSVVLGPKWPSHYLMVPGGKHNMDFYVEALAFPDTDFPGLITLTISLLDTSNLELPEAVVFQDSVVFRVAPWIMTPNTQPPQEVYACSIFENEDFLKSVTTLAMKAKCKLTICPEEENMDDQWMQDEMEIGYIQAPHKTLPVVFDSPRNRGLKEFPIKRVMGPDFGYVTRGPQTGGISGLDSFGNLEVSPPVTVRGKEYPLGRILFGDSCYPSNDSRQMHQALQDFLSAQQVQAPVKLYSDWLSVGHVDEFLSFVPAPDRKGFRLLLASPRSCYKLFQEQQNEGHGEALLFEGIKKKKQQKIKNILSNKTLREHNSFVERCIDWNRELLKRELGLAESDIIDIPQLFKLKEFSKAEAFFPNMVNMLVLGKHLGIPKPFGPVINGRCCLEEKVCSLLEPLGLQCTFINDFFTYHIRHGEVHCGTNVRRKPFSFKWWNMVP

Turning to `Cc1c(-c2cc3ccc(-c4ccc(O)c(F)c4)nc3n2CC2CC2)nn2cc(C(=O)N3CC4CCC3[C@@H]4N)cnc12` (stereo partly drawn) [Example 111, ((7R)-7-Amino-2-azabicyclo[2.2.1]heptan-2-yl)(2-(1-(cyclopropylmethyl)-6-(3-fluoro-4-hydroxyphenyl)-1H-pyrrolo[2,3-b]pyridin-2-yl)-3-methylpyrazolo[1,5-a]pyrimidin-6-yl)methanone], the IC50 (as a rule, the concentration at which inhibition is half-maximal) stood at 15000 nM. The same measure for `COC(=O)N(C)C1CCN(c2ccc3cc(-c4nn5cc(C(=O)N6C[C@H](N)C[C@@H](F)C6)ccc5c4C)n(CC4CC4)c3c2)CC1` [Example 352, Methyl N-[1-(2-{6-[(3R,5R)-3-amino-5-fluoropiperidine-1-carbonyl]-3-methylpyrazolo[1,5-a]pyridin-2-yl}-1-(cyclopropylmethyl)-1H-indol-6-yl)piperidin-4-yl]-N-methylcarbamate]: 810 nM; for `COc1cc(C(=O)N2C[C@H](N)C[C@@H](F)C2)cn2nc(-c3cc4cccc(C5CCN(C(=O)C6CCCCO6)CC5)c4n3CC3CC3)c(C)c12` (single isomer, unassigned) [Example 388]: 70 nM. Next, `Cc1c(-c2cc3ccc(-c4cccc(O)c4F)nc3n2CC2CC2)nn2cc(C(=O)N3CC4CCC3[C@@H]4N)ccc12` (stereo partly drawn) [Example 68, ((7R)-7-Amino-2-azabicyclo[2.2.1]heptan-2-yl)(2-(1-(cyclopropylmethyl)-6-(2-fluoro-3-hydroxyphenyl)-1H-pyrrolo[2,3-b]pyridin-2-yl)-3-methylpyrazolo[1,5-a]pyridin-6-yl)methanone]: 26 nM; `Cc1c(O)cccc1-c1ccc2cc(-c3nn4cc(C(=O)N5CC6CCC5[C@@H]6N)cc(F)c4c3C)n(CC3CC3)c2n1` (stereo partly drawn) [Example 259, 3-(2-{6-[(7R)-7-Amino-2-azabicyclo[2.2.1]heptane-2-carbonyl]-4-fluoro-3-methylpyrazolo[1,5-a]pyridin-2-yl}-1-(cyclopropylmethyl)-1H-pyrrolo[2,3-b]pyridin-6-yl)-2-methylphenol]: 20 nM. The same measure for `CC(=O)N1CCC(c2cccc3cc(-c4nn5cc(C(=O)N6C[C@H](N)C[C@@H](F)C6)ccc5c4C)n(CC4CC4)c23)CC1` [Example 452, 1-(4-(2-(6-((3R,5R)-3-amino-5-fluoropiperidine-1-carbonyl)-3-methylpyrazolo[1,5-a]pyridin-2-yl)-1-(cyclopropylmethyl)-1H-indol-7-yl)piperidin-1-yl)ethan-1-one]: 30 nM. As for `Cc1ccc2cc(-c3nn4cc(C(=O)N5CC6CCC5[C@@H]6N)ccc4c3C)n(CC3CC3)c2n1` (stereo partly drawn) [Example 66, ((7R)-7-Amino-2-azabicyclo[2.2.1]heptan-2-yl)(2-(1-(cyclopropylmethyl)-6-methyl-1H-pyrrolo[2,3-b]pyridin-2-yl)-3-methylpyrazolo[1,5-a]pyridin-6-yl)methanone], the IC50 was found to be 59 nM. Next, `CO[C@H](C)C(=O)N1CCC(c2cccc3cc(-c4nn5cc(C(=O)N6C[C@H](N)C[C@@H](F)C6)ccc5c4C)n(CC4CC4)c23)CC1` [Example 461, (R)-1-(4-(2-(6-((3R,5R)-3-amino-5-fluoropiperidine-1-carbonyl)-3-methylpyrazolo[1,5-a]pyridin-2-yl)-1-(cyclopropylmethyl)-1H-indol-7-yl)piperidin-1-yl)-2-methoxypropan-1-one]: 80 nM; `Cc1c(-c2cc3ccc(N4CCC5(CC4)CN(C)C(=O)O5)nc3n2CC2CC2)nn2cc(C(=O)N3CCC[C@@H](N)C3)cc(F)c12` [Example 269, 8-(2-{6-[(3R)-3-Aminopiperidine-1-carbonyl]-4-fluoro-3-methylpyrazolo[1,5-a]pyridin-2-yl}-1-(cyclopropylmethyl)-1H-pyrrolo[2,3-b]pyridin-6-yl)-3-methyl-1-oxa-3,8-diazaspiro[4.5]decan-2-one]: 540 nM; `Cc1c(-c2cc3cccc(C4CN(C(=O)C5CCCCO5)C4)c3n2CC2CC2)nn2cc(C(=O)N3C[C@H](N)C[C@@H](F)C3)ccc12` (mixture of isomers) [Example 544, ((3R,5R)-3-Amino-5-fluoropiperidin-1-yl)(2-(1-(cyclopropylmethyl)-7-(1-(tetrahydro-2H-pyran-2-carbonyl)azetidin-3-yl)-1H-indol-2-yl)-3-methylpyrazolo[1,5-a]pyridin-6-yl)methanone]: 1070 nM. Next, `COc1cc(C(=O)N2C[C@H](N)C[C@@H](F)C2)cn2nc(-c3cc4ccc(N5CCC(C(=O)N(C)C)CC5)cc4n3CC3CC3)c(C)c12` [Example 242, 1-(2-{6-[(3R,5R)-3-Amino-5-fluoropiperidine-1-carbonyl]-4-methoxy-3-methylpyrazolo[1,5-a]pyridin-2-yl}-1-(cyclopropylmethyl)-1H-indol-6-yl)-N,N-dimethylpiperidine-4-carboxamide]: 90 nM. Next, `Cc1cc(C(N)=O)c(F)cc1-c1ccc2cc(-c3nn4cc(C(=O)N5CC6CCC5[C@@H]6N)cc(F)c4c3C)n(CC3CC3)c2n1` (stereo partly drawn) [Example 260, 4-(2-{6-[(7R)-7-Amino-2-azabicyclo[2.2.1]heptane-2-carbonyl]-4-fluoro-3-methylpyrazolo[1,5-a]pyridin-2-yl}-1-(cyclopropylmethyl)-1H-pyrrolo[2,3-b]pyridin-6-yl)-2-fluoro-5-methylbenzamide]: 220 nM; `COc1cc(C(=O)N2C[C@H](N)C[C@@H](F)C2)cn2nc(-c3cc4ccc(-c5ccc(CNC(C)=O)cc5)cc4n3CC3CC3)c(C)c12` [Example 221, N-{[4-(2-{6-[(3R,5R)-3-Amino-5-fluoropiperidine-1-carbonyl]-4-methoxy-3-methylpyrazolo[1,5-a]pyridin-2-yl}-1-(cyclopropylmethyl)-1H-indol-6-yl)phenyl]methyl}acetamide]: 510 nM; `Cc1c(-c2cc3ccc(-c4ccc(OC(F)F)cc4)nc3n2CC2CC2)nn2cc(C(=O)N3CC4CCC3[C@@H]4N)cc(F)c12` (stereo partly drawn) [Example 47, ((7R)-7-Amino-2-azabicyclo[2.2.1]heptan-2-yl)(2-(1-(cyclopropylmethyl)-6-(4-(difluoromethoxy)phenyl)-1H-pyrrolo[2,3-b]pyridin-2-yl)-4-fluoro-3-methylpyrazolo[1,5-a]pyridin-6-yl)methanone]: 1480 nM. For `Cc1c(-c2cc3cc(F)cc(C4CCN(C(=O)C5CC(O)(C(F)(F)F)C5)CC4)c3n2CC2CC2)nn2cc(C(=O)N3CCC[C@@H](N)C3)ccc12` (stereo partly drawn) [Example 504, (R)-(3-Aminopiperidin-1-yl)(2-(1-(cyclopropylmethyl)-5-fluoro-7-(1-(3-hydroxy-3-(trifluoromethyl)cyclobutane-1-carbonyl)piperidin-4-yl)-1H-indol-2-yl)-3-methylpyrazolo[1,5-a]pyridin-6-yl)methanone], the IC50 came to 110 nM. Next, `CO[C@@H](C)C(=O)N1CCC(c2cccc3cc(-c4nn5cc(C(=O)N6CCC[C@@H](N)C6)cc(F)c5c4C)n(CC4CC4)c23)CC1` [Example 424, (S)-1-(4-(2-(6-((R)-3-Aminopiperidine-1-carbonyl)-4-fluoro-3-methylpyrazolo[1,5-a]pyridin-2-yl)-1-(cyclopropylmethyl)-1H-indol-7-yl)piperidin-1-yl)-2-methoxypropan-1-one]: 80 nM; `COc1cc(C(=O)N2C[C@H](N)C[C@@H](F)C2)cn2nc(-c3cc4ccc(-c5cccc(-c6nn[nH]n6)c5)cc4n3CC3CC3)c(C)c12` [Example 220, (3R,5R)-1-{2-[1-(Cyclopropylmethyl)-6-[3-(2H-1,2,3,4-tetrazol-5-yl)phenyl]-1H-indol-2-yl]-4-methoxy-3-methylpyrazolo[1,5-a]pyridine-6-carbonyl}-5-fluoropiperidin-3-amine]: 4340 nM; `Cc1c(-c2cc3cccc(OCC4CC(=O)N(C)C4)c3n2CC2CC2)nn2cc(C(=O)N3C[C@H](N)C[C@@H](F)C3)ccc12` (single isomer, unassigned) [Example 579]: 240 nM. Next, `Cc1c(-c2cc3cccc(C4CCN(C(=O)C(C)(C)CO)CC4)c3n2CC2CC2)nn2cc(C(=O)N3C[C@H](N)C[C@@H](F)C3)ccc12` [Example 433, 1-(4-(2-(6-((3R,5R)-3-amino-5-fluoropiperidine-1-carbonyl)-3-methylpyrazolo[1,5-a]pyridin-2-yl)-1-(cyclopropylmethyl)-1H-indol-7-yl)piperidin-1-yl)-3-hydroxy-2,2-dimethylpropan-1-one]: 140 nM; `COc1cc(C(=O)N2CCC[C@@H](N)C2)cn2nc(-c3cc4cccc(OC[C@H]5CCC(=O)N5)c4n3CC3CC3)c(C)c12` [Example 561, (R)-5-(((2-(6-((R)-3-Aminopiperidine-1-carbonyl)-4-methoxy-3-methylpyrazolo[1,5-a]pyridin-2-yl)-1-(cyclopropylmethyl)-1H-indol-7-yl)oxy)methyl)pyrrolidin-2-one]: 640 nM.

Consider `COc1cc(C(=O)N2C[C@H](N)C[C@@H](F)C2)cn2nc(-c3cc4cccc(OC[C@@H]5CCC(=O)N5)c4n3CC3CC3)c(C)c12` [Example 560, (S)-5-(((2-(6-((3R,5R)-3-Amino-5-fluoropiperidine-1-carbonyl)-4-methoxy-3-methylpyrazolo[1,5-a]pyridin-2-yl)-1-(cyclopropylmethyl)-1H-indol-7-yl)oxy)methyl)pyrrolidin-2-one], for which the IC50 came to 160 nM.

Take `COc1cc(C(=O)N2CC3CCC2[C@@H]3N)cc2sc(-c3cc4ccc(N5CCC(OC)CC5)nc4n3CC3CC3)c(C)c12` (stereo partly drawn) [Example 137, ((7R)-7-Amino-2-azabicyclo[2.2.1]heptan-2-yl)(2-(1-(cyclopropylmethyl)-6-(4-methoxypiperidin-1-yl)-1H-pyrrolo[2,3-b]pyridin-2-yl)-4-methoxy-3-methylbenzo[b]thiophen-6-yl)methanone]: the IC50 was 71 nM.

For the compound `Cc1c(-c2cc3ccc(-c4ccc5c(c4)CNC5=O)cc3n2CC2CC2)nn2cc(C(=O)N3C[C@H](N)C[C@@H](F)C3)ccc12` [Example 95, 5-(2-(6-((3R,5R)-3-Amino-5-fluoropiperidine-1-carbonyl)-3-methylpyrazolo[1,5-a]pyridin-2-yl)-1-(cyclopropylmethyl)-1H-indol-6-yl)isoindolin-1-one], the IC50 was 133 nM.

Source of the values: US12473304B2, “Heterocyclic PAD4 inhibitors” (BRISTOL-MYERS SQUIBB COMPANY, priority 2020, dated 2025).
